Measured values published in ChEMBL document CHEMBL5108011, “Design, synthesis and antitumor evaluation of ATP dual-mimic 2,4-diarylaminopyrimidine and aminoindazole conjugates as potent anaplastic lymphoma kinase inhibitors” (Eur J Med Chem, 2022).

Legend:
[1] = target: ALK tyrosine kinase receptor (Homo sapiens, UniProt Q9UM73, G1202R); experiment: Inhibition of ALK G1202R mutant (unknown origin) incubated for 1 hr and measured by mobility shift assay
[2] = target: ALK tyrosine kinase receptor (Homo sapiens, UniProt Q9UM73, L1196M); experiment: Inhibition of ALK L1196M mutant (unknown origin) incubated for 1 hr and measured by mobility shift assay
[3] = target: ALK tyrosine kinase receptor (Homo sapiens, UniProt Q9UM73); experiment: Inhibition of ALK (unknown origin) incubated for 1 hr and measured by mobility shift assay
[4] = test system: NCI-H3122; experiment: cells; conditions: Homo sapiens, NCI-H3122, 72 h
Description: Antiproliferative activity against EML4-ALK-positive human NCI-H3122 cells incubated for 72 hrs and measured by CCK-8 assay

[5] = test system: NCI-H2228; experiment: cells; conditions: Homo sapiens, NCI-H2228, 72 h
Description: Antiproliferative activity against EML4-ALK-positive human NCI-H2228 cells incubated for 72 hrs and measured by CCK-8 assay

[6] = test system: A549; experiment: cells; conditions: Homo sapiens, A549, 72 h
Description: Antiproliferative activity against EGFR-positive human A549 cells incubated for 72 hrs and measured by CCK-8 assay

[7] = test system: KARPAS-299; experiment: cells; conditions: Homo sapiens, KARPAS-299, 72 h
Description: Antiproliferative activity against NPM-ALK-positive human KARPAS-299 cells incubated for 72 hrs and measured by CCK-8 assay

[8] = target: Epidermal growth factor receptor (Homo sapiens, UniProt P00533); experiment: Inhibition of EGFR (unknown origin) incubated for 1 hr and measured by mobility shift assay
[9] = Cytotoxicity against human HELF cells incubated for 72 hrs and measured by CCK-8 assay; format: toxicity, cell-based
[10] = test system: PC-3; experiment: Antiproliferative activity against human PC-3 cells incubated for 72 hrs and measured by CCK-8 assay; format: functional, cell-based; conditions: PC-3, 72 h
[11] = test system: NCI-H2228; experiment: Induction of apoptosis in EML4-ALK-positive human NCI-H2228 cells assessed as apoptotic rate at 100 nM measured after 48 hrs by annexin V-FITC/propidium iodide staining based flow cytometry (reference value: 6.6%); format: functional
[12] = test system: HCT-116; experiment: Antiproliferative activity against human HCT-116 cells incubated for 72 hrs and measured by CCK-8 assay; format: functional, cell-based; conditions: HCT-116, 72 h
[13] = test system: MCF7; experiment: Antiproliferative activity against human MCF7 cells incubated for 72 hrs and measured by CCK-8 assay; format: functional, cell-based; conditions: MCF7, 72 h
[14] = test system: NCI-H1581; experiment: Antiproliferative activity against human NCI-H1581 cells incubated for 72 hrs and measured by CCK-8 assay; format: functional, cell-based; conditions: NCI-H1581, 72 h

Chain of ALK tyrosine kinase receptor (Homo sapiens, UniProt Q9UM73, G1202R) (Q9UM73 19-1620 G1202R limits assumed): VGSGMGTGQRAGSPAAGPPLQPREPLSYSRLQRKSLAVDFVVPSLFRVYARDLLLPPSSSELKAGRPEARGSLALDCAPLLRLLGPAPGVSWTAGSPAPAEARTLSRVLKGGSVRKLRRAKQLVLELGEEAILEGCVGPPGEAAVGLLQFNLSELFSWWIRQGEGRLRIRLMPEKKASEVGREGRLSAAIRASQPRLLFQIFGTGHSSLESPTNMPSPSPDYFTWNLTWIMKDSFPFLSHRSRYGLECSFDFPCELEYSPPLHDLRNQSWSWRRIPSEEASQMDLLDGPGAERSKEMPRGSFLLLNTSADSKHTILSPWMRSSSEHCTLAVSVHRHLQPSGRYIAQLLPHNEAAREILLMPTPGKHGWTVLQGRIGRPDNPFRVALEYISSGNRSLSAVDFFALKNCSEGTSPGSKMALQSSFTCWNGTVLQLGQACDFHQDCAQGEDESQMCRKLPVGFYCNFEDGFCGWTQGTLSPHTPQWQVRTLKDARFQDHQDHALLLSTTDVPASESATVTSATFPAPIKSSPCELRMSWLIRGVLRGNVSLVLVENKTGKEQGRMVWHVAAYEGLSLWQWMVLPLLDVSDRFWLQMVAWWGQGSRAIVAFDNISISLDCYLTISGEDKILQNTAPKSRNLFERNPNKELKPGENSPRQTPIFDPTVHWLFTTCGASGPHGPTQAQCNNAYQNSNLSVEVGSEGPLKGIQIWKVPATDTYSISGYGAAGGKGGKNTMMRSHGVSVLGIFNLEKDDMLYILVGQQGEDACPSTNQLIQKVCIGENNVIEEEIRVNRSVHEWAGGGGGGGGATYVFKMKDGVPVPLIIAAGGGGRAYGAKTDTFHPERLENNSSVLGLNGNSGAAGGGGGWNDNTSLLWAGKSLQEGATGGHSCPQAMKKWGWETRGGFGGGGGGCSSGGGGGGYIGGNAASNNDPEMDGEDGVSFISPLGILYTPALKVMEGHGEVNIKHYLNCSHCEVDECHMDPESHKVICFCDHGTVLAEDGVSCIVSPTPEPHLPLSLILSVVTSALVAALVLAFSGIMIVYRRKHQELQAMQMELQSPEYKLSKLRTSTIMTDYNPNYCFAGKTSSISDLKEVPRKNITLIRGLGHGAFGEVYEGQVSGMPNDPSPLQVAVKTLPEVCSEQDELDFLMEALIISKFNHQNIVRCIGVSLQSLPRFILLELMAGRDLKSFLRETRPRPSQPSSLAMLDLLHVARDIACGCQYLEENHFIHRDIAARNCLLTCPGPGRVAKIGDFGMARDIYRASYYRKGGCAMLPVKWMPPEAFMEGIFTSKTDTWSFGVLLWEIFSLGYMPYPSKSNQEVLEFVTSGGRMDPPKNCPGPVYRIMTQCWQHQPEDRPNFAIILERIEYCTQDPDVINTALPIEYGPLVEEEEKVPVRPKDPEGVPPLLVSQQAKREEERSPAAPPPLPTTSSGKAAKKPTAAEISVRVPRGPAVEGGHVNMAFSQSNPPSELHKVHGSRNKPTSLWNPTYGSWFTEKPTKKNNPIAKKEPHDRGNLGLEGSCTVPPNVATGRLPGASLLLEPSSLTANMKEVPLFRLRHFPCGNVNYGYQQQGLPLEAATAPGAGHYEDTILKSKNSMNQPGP
Chain of ALK tyrosine kinase receptor (Homo sapiens, UniProt Q9UM73, L1196M) (Q9UM73 19-1620 L1196M limits assumed): as the sequence (Q9UM73 19-1620 G1202R limits assumed) above, with L1178M, R1184G counted along it
Chain of ALK tyrosine kinase receptor (Homo sapiens, UniProt Q9UM73) (Q9UM73 whole entry): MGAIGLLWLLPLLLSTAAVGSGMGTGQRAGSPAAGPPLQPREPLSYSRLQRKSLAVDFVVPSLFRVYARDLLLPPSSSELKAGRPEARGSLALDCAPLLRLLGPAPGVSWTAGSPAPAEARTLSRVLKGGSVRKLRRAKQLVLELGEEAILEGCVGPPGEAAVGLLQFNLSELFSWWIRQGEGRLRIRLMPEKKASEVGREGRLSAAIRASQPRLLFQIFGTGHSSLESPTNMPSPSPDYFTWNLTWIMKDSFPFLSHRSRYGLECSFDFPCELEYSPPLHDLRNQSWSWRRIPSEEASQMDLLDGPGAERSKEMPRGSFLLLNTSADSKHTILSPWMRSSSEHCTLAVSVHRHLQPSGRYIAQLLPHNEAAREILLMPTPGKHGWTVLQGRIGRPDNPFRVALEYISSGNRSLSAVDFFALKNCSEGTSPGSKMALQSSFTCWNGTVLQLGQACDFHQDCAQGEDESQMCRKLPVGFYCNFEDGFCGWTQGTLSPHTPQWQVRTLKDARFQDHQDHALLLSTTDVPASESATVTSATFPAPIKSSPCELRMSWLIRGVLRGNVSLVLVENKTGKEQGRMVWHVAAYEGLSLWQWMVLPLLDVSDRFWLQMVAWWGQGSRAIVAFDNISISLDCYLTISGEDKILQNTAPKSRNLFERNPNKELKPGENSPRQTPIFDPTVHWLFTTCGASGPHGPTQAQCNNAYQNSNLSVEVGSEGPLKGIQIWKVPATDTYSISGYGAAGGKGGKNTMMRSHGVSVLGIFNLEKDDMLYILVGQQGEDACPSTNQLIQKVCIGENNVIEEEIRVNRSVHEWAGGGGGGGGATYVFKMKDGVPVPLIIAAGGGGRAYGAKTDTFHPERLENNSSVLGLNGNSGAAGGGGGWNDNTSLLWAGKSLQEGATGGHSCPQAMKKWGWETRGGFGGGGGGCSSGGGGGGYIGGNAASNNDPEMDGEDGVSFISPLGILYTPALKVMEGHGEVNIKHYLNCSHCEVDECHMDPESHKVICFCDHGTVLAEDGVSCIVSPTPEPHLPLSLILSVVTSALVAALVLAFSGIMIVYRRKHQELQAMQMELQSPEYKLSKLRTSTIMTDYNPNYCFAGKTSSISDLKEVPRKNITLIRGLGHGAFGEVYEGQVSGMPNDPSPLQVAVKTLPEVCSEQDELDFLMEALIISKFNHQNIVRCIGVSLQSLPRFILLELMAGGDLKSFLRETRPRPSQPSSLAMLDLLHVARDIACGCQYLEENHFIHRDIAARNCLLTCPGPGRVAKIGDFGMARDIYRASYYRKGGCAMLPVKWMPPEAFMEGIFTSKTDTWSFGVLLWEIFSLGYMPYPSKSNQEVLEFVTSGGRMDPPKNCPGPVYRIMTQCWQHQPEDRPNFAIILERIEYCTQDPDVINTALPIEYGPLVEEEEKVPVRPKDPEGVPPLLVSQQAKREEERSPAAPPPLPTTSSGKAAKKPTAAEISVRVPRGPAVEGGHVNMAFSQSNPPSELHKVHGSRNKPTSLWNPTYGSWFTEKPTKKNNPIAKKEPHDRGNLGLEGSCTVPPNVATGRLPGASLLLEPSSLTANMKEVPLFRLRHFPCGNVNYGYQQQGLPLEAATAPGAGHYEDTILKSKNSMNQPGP
Chain of Epidermal growth factor receptor (P00533 whole entry): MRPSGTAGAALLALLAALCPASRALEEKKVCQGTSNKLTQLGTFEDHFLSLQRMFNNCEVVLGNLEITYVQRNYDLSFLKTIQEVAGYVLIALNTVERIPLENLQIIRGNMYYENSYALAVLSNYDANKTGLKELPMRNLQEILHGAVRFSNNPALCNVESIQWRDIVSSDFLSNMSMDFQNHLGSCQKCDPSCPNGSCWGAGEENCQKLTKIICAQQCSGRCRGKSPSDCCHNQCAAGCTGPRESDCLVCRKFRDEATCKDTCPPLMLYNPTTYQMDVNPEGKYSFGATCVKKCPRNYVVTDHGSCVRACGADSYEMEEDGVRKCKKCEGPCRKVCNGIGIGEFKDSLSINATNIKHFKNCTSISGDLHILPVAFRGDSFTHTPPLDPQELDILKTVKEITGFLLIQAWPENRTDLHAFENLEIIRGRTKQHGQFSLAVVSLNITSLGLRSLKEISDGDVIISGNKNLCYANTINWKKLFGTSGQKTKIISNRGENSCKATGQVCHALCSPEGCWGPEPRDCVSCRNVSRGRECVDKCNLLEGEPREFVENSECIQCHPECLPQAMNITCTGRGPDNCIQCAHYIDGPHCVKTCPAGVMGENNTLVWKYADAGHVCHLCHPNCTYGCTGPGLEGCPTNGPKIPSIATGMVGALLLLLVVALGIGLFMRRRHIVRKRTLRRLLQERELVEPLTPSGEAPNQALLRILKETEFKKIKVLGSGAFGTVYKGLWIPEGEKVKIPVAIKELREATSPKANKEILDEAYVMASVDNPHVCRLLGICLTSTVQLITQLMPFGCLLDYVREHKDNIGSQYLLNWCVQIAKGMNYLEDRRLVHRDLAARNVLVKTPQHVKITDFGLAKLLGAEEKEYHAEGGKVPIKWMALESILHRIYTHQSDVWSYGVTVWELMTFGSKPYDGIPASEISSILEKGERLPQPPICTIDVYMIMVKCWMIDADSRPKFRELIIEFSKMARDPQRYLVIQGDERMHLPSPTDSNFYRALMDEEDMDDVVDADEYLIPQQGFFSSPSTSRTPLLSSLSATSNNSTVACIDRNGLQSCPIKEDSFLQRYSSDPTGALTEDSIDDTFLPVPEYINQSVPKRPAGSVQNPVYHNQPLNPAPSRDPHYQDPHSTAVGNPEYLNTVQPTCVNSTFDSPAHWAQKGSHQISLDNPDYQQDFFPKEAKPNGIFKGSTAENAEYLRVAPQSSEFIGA

| IC50 [4] [nM] | IC50 [5] [nM] | IC50 [6] [nM] | IC50 [7] [nM] | SMILES | further results |
| --- | --- | --- | --- | --- | --- |
|  |  |  |  | CC(C)S(=O)(=O)c1ccccc1Nc1nc(Nc2ccc3c(NC(=O)CN(C)C)n[nH]c3c2)ncc1Cl | IC50 [1]: 3.8 nM; IC50 [2]: 4.8 nM; IC50 [3]: 2.5 nM |
| 107 | 204 | 7210 | 31 | CNC(=O)c1ccccc1Nc1nc(Nc2ccc3c(NC(=O)CN4CCCCC4)n[nH]c3c2)ncc1Cl |  |
| 245 | 339 | 3440 | 132 | CN(C)CC(=O)Nc1n[nH]c2cc(Nc3ncc(Cl)c(Nc4ccccc4NS(C)(=O)=O)n3)ccc12 |  |
| 157 | 250 | 7260 | 46 | CC(C)S(=O)(=O)c1ccccc1Nc1nc(Nc2ccc3c(NC(=O)CN4CCN(CCO)CC4)n[nH]c3c2)ncc1Cl |  |
| 1530 | 781 | 1850 | 169 | CN(C)CC(=O)Nc1n[nH]c2cc(Nc3ncc(Cl)c(Nc4ccccc4NS(=O)(=O)C4CC4)n3)ccc12 |  |
| 73 | 124 | 2390 | 22 | CC(C)S(=O)(=O)c1ccccc1Nc1nc(Nc2ccc3c(NC(=O)CN4CCOCC4)n[nH]c3c2)ncc1Cl |  |
| 65 | 104 | 1470 | 16 | CC1CCN(CC(=O)Nc2n[nH]c3cc(Nc4ncc(Cl)c(Nc5ccccc5S(=O)(=O)C(C)C)n4)ccc23)CC1 |  |
|  |  |  |  | CNC(=O)c1ccccc1Nc1nc(Nc2ccc3c(NC(=O)CN4CCCC4)n[nH]c3c2)ncc1Cl | IC50 [1]: 2.1 nM; IC50 [2]: 4.4 nM; IC50 [3]: 3.6 nM |
| 137 | 322 | 1220 | 76 | CNC(=O)c1ccccc1Nc1nc(Nc2ccc3c(NC(=O)CN4CCSCC4)n[nH]c3c2)ncc1Cl |  |
| 71 | 113 | 4810 | 29 | CNC(=O)c1ccccc1Nc1nc(Nc2ccc3c(NC(=O)CN4CCC(C)CC4)n[nH]c3c2)ncc1Cl |  |
| 83 | 133 | 3260 | 19 | CC(C)S(=O)(=O)c1ccccc1Nc1nc(Nc2ccc3c(NC(=O)CN4CCCCC4)n[nH]c3c2)ncc1Cl |  |
| 129 | 170 | 1840 | 41 | CC(C)S(=O)(=O)c1ccccc1Nc1nc(Nc2ccc3c(NC(=O)CN4CCC(O)CC4)n[nH]c3c2)ncc1Cl |  |
| 74 | 770 | 1670 | 359 | CC(=O)Nc1ccccc1Nc1nc(Nc2ccc3c(NC(=O)CN(C)C)n[nH]c3c2)ncc1Cl |  |
| 97 | 112 | 2230 | 23 | CNC(=O)c1ccccc1Nc1nc(Nc2ccc3c(NC(=O)CN4CCOCC4)n[nH]c3c2)ncc1Cl |  |
| 175 | 412 | 13600 | 53 | CNC(=O)c1ccccc1Nc1nc(Nc2ccc3c(NC(=O)CN4CCN(CCO)CC4)n[nH]c3c2)ncc1Cl |  |
| 57 | 45 | 2560 | 21 | CCN(CC)CC(=O)Nc1n[nH]c2cc(Nc3ncc(Cl)c(Nc4ccccc4S(=O)(=O)C(C)C)n3)ccc12 | IC50 [1]: 1.8 nM; IC50 [2]: 3.8 nM; IC50 [3]: 3.3 nM; IC50 [8]: > 1000 nM |
| 124 | 126 | 1180 | 36 | CC(C)S(=O)(=O)c1ccccc1Nc1nc(Nc2ccc3c(NC(=O)CN4CCSCC4)n[nH]c3c2)ncc1Cl |  |
| 187 | 569 | 2030 | 63 | CNC(=O)c1ccccc1Nc1nc(Nc2ccc3c(NC(=O)CN4CCC(=O)CC4)n[nH]c3c2)ncc1Cl |  |
| 3690 | 2980 | 5910 | 1250 | C/C=C/C(=O)Nc1ccccc1Nc1nc(Nc2ccc3c(NC(=O)CN(C)C)n[nH]c3c2)ncc1Cl |  |
| 151 | 362 | 2000 | 59 | CNC(=O)c1ccccc1Nc1nc(Nc2ccc3c(NC(=O)CN4CCC(O)CC4)n[nH]c3c2)ncc1Cl |  |
| 21 | 51 | 2190 | 12 | CNC(=O)c1ccccc1Nc1nc(Nc2ccc3c(NC(=O)CN(C)C)n[nH]c3c2)ncc1Cl | IC50 [1]: 2.5 nM; IC50 [2]: 6.6 nM; IC50 [3]: 3.7 nM; IC50 [8]: > 1000 nM |
| 43 | 66 | 2770 | 24 | Cc1cc(Nc2ncc(Cl)c(Nc3ccccc3S(=O)(=O)C(C)C)n2)c(OC(C)C)cc1C1CCNCC1 [CERITINIB] | IC50 at 72 h [9]: > 20000 nM; IC50 [10]: 1020 nM; Activity [11]: 12.32%; IC50 [12]: 1930 nM; IC50 [13]: 1870 nM; IC50 [14]: 2310 nM |
| 85 | 62 | 2350 | 17 | CCN(CC)CC(=O)Nc1n[nH]c2cc(Nc3ncc(Cl)c(Nc4ccccc4C(=O)NC)n3)ccc12 |  |
| 84 | 140 | 3970 | 26 | CCN1CCN(CC(=O)Nc2n[nH]c3cc(Nc4ncc(Cl)c(Nc5ccccc5S(=O)(=O)C(C)C)n4)ccc23)CC1 |  |
| 3490 | 1820 | 4490 | 899 | C=CC(=O)Nc1ccccc1Nc1nc(Nc2ccc3c(NC(=O)CN(C)C)n[nH]c3c2)ncc1Cl |  |
| 1570 | 912 | 1690 | 718 | CN(C)CC(=O)Nc1n[nH]c2cc(Nc3ncc(Cl)c(Nc4ccccc4NC(=O)C(C)(C)C)n3)ccc12 |  |
| 162 | 242 | 4470 | 21 | CCN1CCN(CC(=O)Nc2n[nH]c3cc(Nc4ncc(Cl)c(Nc5ccccc5C(=O)NC)n4)ccc23)CC1 |  |
| 836 | 823 | 1320 | 558 | CN(C)CC(=O)Nc1n[nH]c2cc(Nc3ncc(Cl)c(Nc4ccccc4NC(=O)C4CC4)n3)ccc12 |  |
| 89 | 520 | 3580 | 34 | CC(C)S(=O)(=O)c1ccccc1Nc1nc(Nc2ccc3c(NC(=O)CN4CCN(C)CC4)n[nH]c3c2)ncc1Cl |  |
| 2960 | 1450 | 5780 | 1270 | CN(C)CC(=O)Nc1n[nH]c2cc(Nc3ncc(Cl)c(Nc4ccccc4NC(=O)C(Cl)(Cl)Cl)n3)ccc12 |  |
